# Experimental data: US20250154135A1, “M-CHOLINE RECEPTOR AGONIST COMPOUND, PREPARATION METHOD THEREFOR AND USE THEREOF” (NANJING GRITPHARMA CO., LTD., priority 2022, published 2025)
# Tests used:
# [1] = Stability tests on compound starting materials (HPLC related substances); type: physicochemical; details: for (Z-A) impurity A isopilocarpine / (Z-B) impurity B pilocarpic acid / (Z-C) impurity C isopilocarpic acid / Maximum single impurity / Total impurity: starting material
# Experimental: Samples: compound 1, compound 2 and pilocarpine hydrochloride starting material solid particles.
# High-temperature test: 1 g of each of compound 1, compound 2 and pilocarpine hydrochloride starting materials were taken and placed in an open container inside a constant temperature device at 40° C.; samples were taken at time points of day 0 and day 5, and then tested according to the key stability examination items. The stability of the active pharmaceutical ingredient itself and the trend of changes in stability under the conditions of influencing factor tests were observed.
# Strong light irradiation test: 1 g of each of compound 1, compound 2 and pilocarpine hydrochloride starting materials were taken and placed in an open container inside a light irradiation box, with the illumination set at 4500 lx±500 lx; samples were taken at time points of day 0 and day 5, and then tested according to the key stability examination items.
# High-humidity test: 1 g of each of compound 1, compound 2 and pilocarpine hydrochloride starting materials was taken and placed in an open container inside a constant humidity closed container at 25° C. and with a relative humidity of 75%±5%; samples were taken at day 0 and day 5, and then tested according to the requirements of the key stability examination items.
# According to the records in the European Pharmacopoeia (EP), the key related substances to be examined for pilocarpine include: impurity A isopilocarpine (Z-A), impurity B pilocarpic acid (Z-B), and impurity C isopilocarpic acid (Z-C). The samples taken at different time points from the above high-temperature test, strong light irradiation test and high-humidity test were separately tested using high-performance liquid chromatography to observe the trend of changes in stability under the conditions of the influencing factor tests.
# The related substances were determined according to the high-performance liquid chromatography (General Chapter 0512, Chinese Pharmacopoeia, Volume IV, 2020 Edition).
# Test sample solution: an appropriate amount of each test sample was precisely weighed, dissolved in water, and diluted to prepare a solution containing 1 mg of test sample per 1 mL.
# Chromatographic conditions: octadecyl bonded silica gel was used as a filler [kromasil 100-5-C18 column (4.0 mm×[…]) or a chromatographic column with equivalent performance], 0.679 g/L tetrabutylammonium dihydrogen phosphate-methanol-acetonitrile (885:55:60) (adjusted to pH 7.7 with dilute aqueous ammonia) was used as mobile phase A, and acetonitrile-water (80:20) was used as mobile phase B; gradient elution was performed according to Table 6-1, with a column temperature of 30° C., a flow rate of 1.0 mL/min, a detection wavelength of 220 nm, and a sample injection volume of 20 μL.
# [2] = test system: rabbit pupil; assay: Rabbit pupil constriction after single eye drop (Test Example 1); type: in vivo, New Zealand rabbit; details: rabbits, Test Example 1 solutions
# Experimental: Except for group 5), the eye drop solutions of groups 1) to 12) described above contained an equimolar concentration of pilocarpine. The molar concentration of pilocarpine in the eye drop solution of group 5) was half of the molar concentration of pilocarpine in the solutions of the other 11 groups.
# The effects of the eye drop solutions of groups 1) to 12) prepared above on rabbit pupil constriction and irritation were tested separately.
# • Species and strain: New Zealand rabbit • Grade: normal • Source: Qinglongshan Animal Breeding Farm, Jiangning District, Nanjing • Production license No.: SCXK (Su) 2016-0008 • Animal age: about 110 days old at the time of administration • Animal body weight: about 2.5-3.5 kg at the time of administration • Animal sex: all male • Feed: rabbit pellet feed • Housing conditions: air-conditioned room, with a temperature of 18-26° C. and a relative humidity of 40%-80%.
# • Digital vernier caliper: specification: 0-150 mm; measurement accuracy: 0.01 mm; manufacturer: Guilin Guanglu Measuring Instrument Co., Ltd.
# Each rabbit was subjected to eye drop administration in the left eye (using a pipette), with an administration volume of 100 μL.
# • Number of animals: for JQ series compounds, 6 rabbits per compound; for compounds 1, 2 and 4, 5 rabbits per compound. • Administration schedule: single administration. Measurement indicators and time points: • for JQ series compounds, the pupil diameter of the left eye of the rabbits was measured at time points of −0.5 h (i.e., half an hour before administration), 5 min, 10 min, 15 min, 0.5 h, 3 h and 4 h relative to administration, with the measurement repeated 3 times for each rabbit at each time point (measurement time points were extended if necessary); • for compounds 1, 2 and 4, the pupil diameter of the left eye of the rabbits was measured at time points of 3 h and 4 h relative to administration, with the measurement repeated 3 times for each rabbit at each time point (measurement time points were extended if necessary).
# Percentage change in pupil diameter (%) after administration=(pupil diameter after administration−pupil diameter before administration)/pupil diameter before administration×100%
# The measurement result for each rabbit at each time point was represented by the average value of three measurements.
# [3] = test system: rabbit pupil; assay: Miosis effect of 0.915% compound solutions in rabbits (Test Example 4); type: in vivo; details: at half of the concentration of the pilocarpine hydrochloride
# Experimental: Each rabbit in each group was subjected to single eye drop administration in the left eye, with an administration volume of 100 μL. The pupil and iris diameters of the left eye of the rabbits were measured at time points of −0.5 h (i.e., half an hour before administration), 0.5 h, 3 h, and 4 h relative to administration (observation time points were extended if necessary), with the measurement performed 5 times for each rabbit at each time point. The entire measurement process was completed by the same person.
# • Reagents: normal saline (specification: 500 mL: 4.5 g), purchased from Jiangxi Kelun Pharmaceutical Co., Ltd.; • compound 1 and compound 2 (from Nanjing Jiqun Pharmaceutical Technology Co., Ltd.); • 1) a compound 1 solution at a concentration of 0.915% prepared using normal saline; • 2) a compound 2 solution at a concentration of 0.915% prepared using normal saline.
# The miosis effects of the 0.915% compound 1 solution and the 0.915% compound 2 solution were determined using the method in Test Example 2, and the determination results are shown in Tables 4-1 and 4-2 below.
# [4] = 40° C. and high light irradiation
Structure (SMILES),"impurity increasing rate compared to pilocarpine hydrochloride starting material [1, 4]","impurity increasing rate compared to pilocarpine hydrochloride starting material ([1]; 5 days, high humidity (RH 75%))",(Z-A) impurity A isopilocarpine ([1]; 40° C.-5 days),(Z-B) impurity B pilocarpic acid ([1]; 40° C.-5 days),(Z-C) impurity C isopilocarpic acid ([1]; 40° C.-5 days),Maximum single impurity ([1]; 40° C.-5 days),Total impurity ([1]; 40° C.-5 days),(Z-A) impurity A isopilocarpine ([1]; Day 0),(Z-B) impurity B pilocarpic acid ([1]; Day 0),(Z-C) impurity C isopilocarpic acid ([1]; Day 0),Maximum single impurity ([1]; Day 0),Total impurity ([1]; Day 0),(Z-A) impurity A isopilocarpine ([1]; Light-5 days (4500 lx)),(Z-B) impurity B pilocarpic acid ([1]; Light-5 days (4500 lx)),(Z-C) impurity C isopilocarpic acid ([1]; Light-5 days (4500 lx)),Maximum single impurity ([1]; Light-5 days (4500 lx)),Total impurity ([1]; Light-5 days (4500 lx)),"(Z-A) impurity A isopilocarpine ([1]; RH 75%-5 days, 25° C.)","(Z-B) impurity B pilocarpic acid ([1]; RH 75%-5 days, 25° C.)","(Z-C) impurity C isopilocarpic acid ([1]; RH 75%-5 days, 25° C.)",also measured
CC[C@@H]1C(=O)OC[C@@H]1Cc1cncn1C [Compound 1],comparable to those of the pilocarpine hydrochloride starting material,significantly slower than those of the pilocarpine hydrochloride,0.365%,0%,0%,0%,0.365%,0.328%,0%,0%,0%,0.328%,0.329%,0%,0%,0%,0.329%,0.310%,0%,0%,"Maximum single impurity ([1]; RH 75%-5 days, 25° C.): 0%; Total impurity ([1]; RH 75%-5 days, 25° C.): 0.331%; pupil constriction (miosis) effect at 3 h after administration [2]: still showed miosis effect; miosis effect compared to pilocarpine hydrochloride [3]: comparable to the effect of pilocarpine hydrochloride"
CC[C@@H]1C(=O)OC[C@@H]1Cc1cncn1C [Compound 2],comparable to those of the pilocarpine hydrochloride starting material,significantly slower than those of the pilocarpine hydrochloride,0.338%,0.072%,0%,0%,0.353%,0.307%,0%,0%,0%,0.307%,0.333%,0.046%,0%,0%,0.339%,0.311%,0.116%,0%,"Maximum single impurity ([1]; RH 75%-5 days, 25° C.): 0%; Total impurity ([1]; RH 75%-5 days, 25° C.): 0.427%; pupil constriction (miosis) effect at 3 h after administration [2]: still showed miosis effect; miosis effect compared to pilocarpine hydrochloride [3]: comparable to the effect of pilocarpine hydrochloride"
